The values that follow come from PMC6591251, “Discovery of potent necroptosis inhibitors targeting RIPK1 kinase activity for the treatment of inflammatory disorder and cancer metastasis” (Cell Death & Disease, 2019).

“Also recorded” adds a separate entry of the source. Like-named read-outs stand apart in the source and are kept apart here.

One experiment relates to HT-29 cells. In words: TNF-induced necroptosis (TNFα/Smac mimetic/z-VAD), cell viability by ATP levels. The experiment is classed as cell-based, human. Here is the method:
Necroptosis is tightly regulated by RIP kinases including RIPK1 and RIPK3. To develop new necroptosis inhibitors, we screened a small-molecule library of around 240 potential kinase inhibitors that were designed with novel structures to affect the ATP-binding pocket of protein kinases. Human colon cancer HT-29 cells were treated with these compounds for […], followed by treatment with necroptotic stimuli (TNFα, Smac mimetic, and z-VAD) that are known to activate TNF-mediated necroptosis. After 48 h, cell viability was analyzed by monitoring ATP levels.
Fig. 1 PK6 efficiently blocks TNF-α induced necroptosis in both human and mouse cells. a HT-29 cells cultured in 96-well plates were pretreated with the indicated compounds (10 μM) from a library consisting of ~240 compounds that we designed with novel structures for 1 h and subsequently treated with 40 ng/ml TNF-α (T), 100 nM Smac mimetic (S), and the caspase inhibitor 20 μM z-VAD(Z) for 48 h. Cell viability was assessed by measuring ATP levels. Data are represented as the mean ± standard deviation of duplicates. b Chemical structure of PK6. c Dose response curve and EC50 ± SD value for PK6 in TNF-α induced necroptosis in HT-29 cells. Cells were pretreated with indicated concentrations of PK6 for 1 h prior to the treatment with T (40 ng/ml), S (100 nM), and Z (20 μM) for 48 h. Cell viability was assessed by measuring ATP levels. d U937 cells were pretreated with indicated concentrations of PK6 for 1 h followed by the treatment with T (40 ng/ml), S (100 nM), and Z (20 μM) for 24 h. e MEF cells were pretreated with indicated concentrations of PK6 for 1 h followed by the treatment with T (40 ng/ml), S (100 nM), and Z (20 μM) for 24 h. f L929 cells were pretreated with indicated concentrations of PK6 for 1 h prior to the treatment with S (100 nM) and Z (20 μM) for 24 h.
Fig. 2 Chemical optimization of PK6 leads to improvements in anti-necroptotic activity. a, b The effects of the indicated compounds on cell viability were examined in HT-29 cells (a) and L929 cells (b). HT-29 cells were treated as indicate for 48 h and L929 cells for 24 h. Cell viability was assessed by measuring ATP levels. Data are represented as the mean ± standard deviation of triplicates. c Structure and EC50 ± SD value of each compound are shown in the table. EC50 values are the average of at least two independent determinations. d Lead optimization of PK6 TEXT PRINTED IN THE PICTURE: (c) PK6: EC50(nM) HT-29: 1200±53; EC50(nM) L929: 760±26 | (c) PK67: EC50(nM) HT-29: 250±6.3; EC50(nM) L929: 130±6.8 | (c) PK81: EC50(nM) HT-29: 120±7.6; EC50(nM) L929: 20±0.98 | (c) PK84: EC50(nM) HT-29: 97±6.7; EC50(nM) L929: 45±2.1 | (c) PK93: EC50(nM) HT-29: 130±36; EC50(nM) L929: 30±7.4 | (c) PK86: EC50(nM) HT-29: 73±3.9; EC50(nM) L929: 15±1.0 | (c) PK68: EC50(nM) HT-29: 23±1.4; EC50(nM) L929: 13±0.85
The cell viability was analyzed by using the CellTiter-Glo Luminescent Cell Viability Assay kit following the manufacturer’s instructions (Promega). Luminescence was measured with SpectraMax i3x (Molecular Devices).

Experiment [1] concerns NF-κB activation in HT-29 cells. The experiment is described as follows: TNF-induced NF-κB activation, western blot of IκB-α and phospho-IκB-α. The experiment is classed as cell-based, human. As to conditions: TNF-α 40 ng/ml 15 min. The protocol: Further, we evaluated the selectivity of PK68 against a panel of 369 kinases provided by Reaction Biology (at 1000 nM). […] In addition, we followed on some of the active “hits” from the kinome scan. PK68 was tested against TNIK and TRKA by a reputable CRO company. […] RIPK1 is known to mediate NF-κB activation independently of its kinase activity. […] It has been shown that homodimerization of RIPK3 or MLKL induced by the dimerizer leads to necroptosis bypassing the upstream signals[10],[37]. […] This dimerized RIPK3-induced necroptosis was blocked by RIPK3 inhibitor GSK873 but was not blocked by the RIPK1 inhibitor necrostatin-1. […] (Fig. 4e).
HT-29 cells were pretreated with indicated compounds for 1h prior to stimulation with TNF-α (40ng/ml) for 15 minutes. The levels of IκB-α and phosphor-IκB-α were analyzed by western blot analysis. The NF-κB inhibitor BMS-345541 was used as a positive control.

In the next experiment the target is T1, ACK1 (Homo sapiens, UniProt Q07912).
T1 construct: purchased Reaction Biology Corporation
The experiment is described as follows: RBC kinase panel. The experiment is classed as biochemical. Conditions: ATP 10 μM, Data1, Data2. The protocol:
(§1) PK68 was tested at 1 μM in duplicate against a panel of 369 human kinases at Reaction Biology Corporation. Results are viewed in the human kinome phylogenetic tree.
(§2) ^a Compound PK68 was tested at 1 μM in duplicate against 369 kinases using the RBC kinase panel service of Reaction Biology Corporation. All the ATP concentrations used were 10 μM. […] Full protocol details are available at http://www.reactionbiology.com.

For the next experiment, the target named is T2, ALK (Homo sapiens, UniProt Q9UM73).
T2 construct: purchased Reaction Biology Corporation
T2 sequence (Q9UM73 19-1620): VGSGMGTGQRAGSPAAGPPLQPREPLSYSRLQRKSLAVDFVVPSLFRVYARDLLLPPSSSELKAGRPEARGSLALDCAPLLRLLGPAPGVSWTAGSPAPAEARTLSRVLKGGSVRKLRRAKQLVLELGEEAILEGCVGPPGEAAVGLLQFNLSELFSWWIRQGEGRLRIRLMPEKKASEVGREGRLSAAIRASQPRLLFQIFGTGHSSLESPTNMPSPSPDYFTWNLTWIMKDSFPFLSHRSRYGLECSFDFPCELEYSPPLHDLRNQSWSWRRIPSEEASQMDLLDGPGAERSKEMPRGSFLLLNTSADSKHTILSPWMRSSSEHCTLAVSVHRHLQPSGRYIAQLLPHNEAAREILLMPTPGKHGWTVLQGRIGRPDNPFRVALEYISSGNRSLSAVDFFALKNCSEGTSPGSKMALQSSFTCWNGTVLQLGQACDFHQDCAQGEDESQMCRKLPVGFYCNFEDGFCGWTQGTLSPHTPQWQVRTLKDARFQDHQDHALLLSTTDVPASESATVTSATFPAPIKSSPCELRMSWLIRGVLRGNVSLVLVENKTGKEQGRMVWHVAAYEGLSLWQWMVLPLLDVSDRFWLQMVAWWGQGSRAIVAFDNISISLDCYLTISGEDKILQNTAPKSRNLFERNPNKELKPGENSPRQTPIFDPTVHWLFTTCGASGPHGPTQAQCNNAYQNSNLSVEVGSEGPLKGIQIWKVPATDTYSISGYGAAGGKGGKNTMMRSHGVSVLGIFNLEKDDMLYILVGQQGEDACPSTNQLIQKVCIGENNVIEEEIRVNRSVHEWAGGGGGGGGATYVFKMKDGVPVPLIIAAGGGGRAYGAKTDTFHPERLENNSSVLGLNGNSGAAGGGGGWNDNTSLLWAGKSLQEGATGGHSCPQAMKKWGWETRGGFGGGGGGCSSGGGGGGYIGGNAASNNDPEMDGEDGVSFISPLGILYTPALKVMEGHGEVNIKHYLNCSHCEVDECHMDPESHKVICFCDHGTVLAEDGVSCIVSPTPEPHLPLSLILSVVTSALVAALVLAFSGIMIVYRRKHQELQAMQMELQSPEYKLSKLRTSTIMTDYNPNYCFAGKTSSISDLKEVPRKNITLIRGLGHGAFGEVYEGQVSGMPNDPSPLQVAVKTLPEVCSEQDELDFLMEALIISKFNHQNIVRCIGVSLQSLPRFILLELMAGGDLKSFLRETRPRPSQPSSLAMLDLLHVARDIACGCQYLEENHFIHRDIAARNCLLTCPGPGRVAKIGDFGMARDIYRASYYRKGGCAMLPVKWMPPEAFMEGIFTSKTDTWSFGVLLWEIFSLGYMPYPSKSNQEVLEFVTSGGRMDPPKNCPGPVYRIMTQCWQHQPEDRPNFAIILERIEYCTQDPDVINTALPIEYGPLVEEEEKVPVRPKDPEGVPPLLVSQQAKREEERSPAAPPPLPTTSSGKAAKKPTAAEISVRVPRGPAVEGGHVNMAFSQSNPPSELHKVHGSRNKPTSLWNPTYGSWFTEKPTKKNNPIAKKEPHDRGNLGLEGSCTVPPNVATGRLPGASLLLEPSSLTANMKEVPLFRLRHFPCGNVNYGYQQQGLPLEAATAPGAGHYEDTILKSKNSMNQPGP
In words: RBC kinase panel. The experiment is classed as biochemical. As to conditions: ATP 10 μM, Data1, Data2. The protocol:
as §1, §2

For a further experiment, the target named is T3, CDK18/cyclin Y (PCTK3) (Homo sapiens, UniProt Q07002).
T3 construct: purchased Reaction Biology Corporation
The experiment is described as follows: RBC kinase panel. The format is biochemical. Conditions: ATP 10 μM, Data1, Data2. The protocol: as §1, §2

The target of a further experiment is T4, CDK2/Cyclin A1 (Homo sapiens, UniProt P24941).
T4 construct: purchased Reaction Biology Corporation
In words: RBC kinase panel. The format is biochemical. As to conditions: ATP 10 μM, Data1, Data2. Here is the method: as §1, §2

The target in another experiment is T5, CK2a (Homo sapiens, UniProt P68400).
T5 construct: purchased Reaction Biology Corporation
In words: RBC kinase panel. The format is biochemical. Conditions: ATP 10 μM, Data1, Data2. Here is the method:
as §1, §2

The target in a further experiment is T6, FES/FPS (Homo sapiens, UniProt P07332).
T6 construct: purchased Reaction Biology Corporation
T6 sequence (P07332 whole entry): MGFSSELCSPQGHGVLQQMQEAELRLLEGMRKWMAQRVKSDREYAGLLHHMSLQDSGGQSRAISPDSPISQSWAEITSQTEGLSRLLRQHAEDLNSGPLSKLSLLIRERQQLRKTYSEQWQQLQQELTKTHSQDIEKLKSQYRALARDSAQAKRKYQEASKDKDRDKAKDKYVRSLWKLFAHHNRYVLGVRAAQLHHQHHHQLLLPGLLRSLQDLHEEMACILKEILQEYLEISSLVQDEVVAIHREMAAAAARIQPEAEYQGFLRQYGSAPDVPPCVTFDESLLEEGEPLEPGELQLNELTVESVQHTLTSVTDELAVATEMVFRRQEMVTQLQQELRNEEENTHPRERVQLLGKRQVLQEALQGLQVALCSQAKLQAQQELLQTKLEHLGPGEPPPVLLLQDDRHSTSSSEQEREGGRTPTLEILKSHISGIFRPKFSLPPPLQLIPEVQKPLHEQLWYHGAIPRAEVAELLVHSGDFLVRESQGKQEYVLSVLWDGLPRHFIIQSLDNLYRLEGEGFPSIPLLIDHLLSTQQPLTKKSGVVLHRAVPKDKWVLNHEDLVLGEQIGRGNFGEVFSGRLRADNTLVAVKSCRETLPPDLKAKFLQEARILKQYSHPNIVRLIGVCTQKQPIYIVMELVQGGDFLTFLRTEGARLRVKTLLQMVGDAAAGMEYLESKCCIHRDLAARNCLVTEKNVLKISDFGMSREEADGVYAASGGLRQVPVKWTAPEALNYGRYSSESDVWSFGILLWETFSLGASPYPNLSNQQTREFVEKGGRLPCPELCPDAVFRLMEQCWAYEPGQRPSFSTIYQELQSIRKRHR
The experiment is described as follows: RBC kinase panel. The experiment is classed as biochemical. As to conditions: ATP 10 μM, Data1, Data2. The protocol: as §1, §2

The target in the next experiment is T7, HIPK3 (Homo sapiens, UniProt Q9H422).
T7 construct: purchased Reaction Biology Corporation
T7 sequence (Q9H422 whole entry): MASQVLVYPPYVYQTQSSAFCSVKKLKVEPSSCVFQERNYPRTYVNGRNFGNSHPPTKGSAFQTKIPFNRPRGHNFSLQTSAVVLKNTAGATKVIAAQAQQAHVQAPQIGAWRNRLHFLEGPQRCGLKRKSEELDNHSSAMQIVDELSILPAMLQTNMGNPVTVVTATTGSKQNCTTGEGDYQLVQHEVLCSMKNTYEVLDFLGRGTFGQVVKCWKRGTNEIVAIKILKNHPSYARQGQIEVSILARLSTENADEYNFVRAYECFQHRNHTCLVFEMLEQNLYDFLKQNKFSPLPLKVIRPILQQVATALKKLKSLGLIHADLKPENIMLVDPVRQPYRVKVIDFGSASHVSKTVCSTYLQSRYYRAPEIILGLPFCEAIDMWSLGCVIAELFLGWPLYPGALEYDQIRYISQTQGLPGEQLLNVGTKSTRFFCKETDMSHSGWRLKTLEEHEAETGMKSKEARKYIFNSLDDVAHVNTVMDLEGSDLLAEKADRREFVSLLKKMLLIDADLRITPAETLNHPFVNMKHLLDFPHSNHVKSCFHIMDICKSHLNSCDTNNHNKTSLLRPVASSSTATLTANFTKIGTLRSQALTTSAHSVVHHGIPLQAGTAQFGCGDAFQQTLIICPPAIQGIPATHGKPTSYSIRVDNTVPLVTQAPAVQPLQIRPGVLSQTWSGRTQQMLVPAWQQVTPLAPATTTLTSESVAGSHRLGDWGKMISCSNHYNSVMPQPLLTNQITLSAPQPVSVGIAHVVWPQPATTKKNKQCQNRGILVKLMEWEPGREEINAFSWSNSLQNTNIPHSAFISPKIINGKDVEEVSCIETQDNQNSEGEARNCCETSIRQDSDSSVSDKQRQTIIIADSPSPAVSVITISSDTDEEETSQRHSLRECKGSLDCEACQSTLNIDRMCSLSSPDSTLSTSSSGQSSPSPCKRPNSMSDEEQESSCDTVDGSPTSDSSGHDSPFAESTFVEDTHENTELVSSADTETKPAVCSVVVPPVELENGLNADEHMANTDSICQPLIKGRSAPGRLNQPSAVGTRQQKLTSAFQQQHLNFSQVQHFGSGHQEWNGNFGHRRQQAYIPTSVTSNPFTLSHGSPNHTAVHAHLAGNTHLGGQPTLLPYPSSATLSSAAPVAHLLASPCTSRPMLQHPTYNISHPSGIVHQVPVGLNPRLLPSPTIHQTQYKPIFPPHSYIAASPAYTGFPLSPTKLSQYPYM
The experiment is described as follows: RBC kinase panel. As to conditions: ATP 10 μM, Data1, Data2. The experiment is classed as biochemical. Here is the method:
as §1, §2

For another experiment, the target named is T8, NEK2 (Homo sapiens, UniProt P51955).
T8 construct: purchased Reaction Biology Corporation
T8 sequence (P51955 whole entry): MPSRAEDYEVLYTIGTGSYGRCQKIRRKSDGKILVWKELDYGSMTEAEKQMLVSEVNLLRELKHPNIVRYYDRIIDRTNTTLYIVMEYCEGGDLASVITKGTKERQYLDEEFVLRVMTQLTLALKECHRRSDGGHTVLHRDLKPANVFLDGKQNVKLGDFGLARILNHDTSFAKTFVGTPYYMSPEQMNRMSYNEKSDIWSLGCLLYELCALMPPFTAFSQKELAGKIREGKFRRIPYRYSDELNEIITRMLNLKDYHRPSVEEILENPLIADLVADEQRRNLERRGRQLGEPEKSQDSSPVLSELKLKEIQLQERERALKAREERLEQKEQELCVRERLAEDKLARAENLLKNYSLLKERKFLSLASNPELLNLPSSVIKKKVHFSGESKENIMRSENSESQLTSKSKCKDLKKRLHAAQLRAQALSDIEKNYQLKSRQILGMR
The experiment is described as follows: RBC kinase panel. The format is biochemical. As to conditions: ATP 10 μM, Data1, Data2. The protocol: as §1, §2

Another experiment deals with T9, PKCg (Homo sapiens, UniProt P05129).
T9 construct: purchased Reaction Biology Corporation
The experiment is described as follows: RBC kinase panel. The experiment is classed as biochemical. As to conditions: ATP 10 μM, Data1, Data2. Here is the method:
as §1, §2

The EC50 is the concentration giving half of the maximal effect. For the molecule `CC(=O)Nc1nc2ccc(-c3cnc(C)c(NC(=O)OC4CCCCC4)c3)cc2s1` [PK68, cyclohexyl (5-(2-acetamidobenzo[d]thiazol-6-yl)-2-methylpyridin-3-yl)carbamate], the EC50 in the experiment with HT-29 cells (Homo sapiens, HT-29, 48 h, T/S/Z 48 h, read-out: EC50(nM) HT-29) is 23 nM; in the experiment on HT-29 cells (T/S/Z 48 h, read-out: EC50(nM) HT-29), around 20 nM. The “TNF-induced NF-κB activation” value in experiment [1] was “no obvious effects; also recorded: no impact; also recorded: no effect”. The Activity% on ACK1 (1 μM) worked out at 84.41%; on ALK (1 μM), 94.03%; on CDK18/cyclin Y (PCTK3) (1 μM), 106.96%; on CDK2/Cyclin A1 (1 μM), 96.71%; on CK2a (1 μM) it was 90.49%; on FES/FPS (1 μM) it was 96.80%. Besides, the Activity% at HIPK3 (1 μM) stood at 63.99%; on NEK2 (1 μM), 112.29%; at PKCg (1 μM) it was 95.02%. Moreover, the activity at 1 µM at ACK1 was 85.5%; at ALK it was 96.1%; on CDK18/cyclin Y (PCTK3), 107%; at CDK2/Cyclin A1, 98.5%; at CK2a it was 95.2%; at FES/FPS it was 96.9%. Moreover, the values for the activity at 1 µM on HIPK3, at NEK2 and at PKCg were 66.4%, 115% and 95.8%, respectively.

Regarding `CC(=O)Nc1nc2ccc(-c3cnc(Cl)c(NC(=O)Cc4ccccc4)c3)cc2s1` [PK6, N-(5-(2-acetamidobenzo[d]thiazol-6-yl)-2-chloropyridin-3-yl)-2-phenylacetamide], the EC50 in the experiment with HT-29 cells (Homo sapiens, HT-29, 48 h, T 40 ng/ml, S 100 nM, Z 20 μM, 48 h, read-out: EC50, TNF-induced necroptosis) was around 1200 nM. In experiment [1], the “TNF-induced NF-κB activation” value is given as “no obvious effects; also recorded: no impact; also recorded: no effect”.
